# Measured values reported in patent US4693999A, “Liposomes containing steroid esters” (priority 1984, dated 1987).
# Like-named read-outs stand apart in the source and are kept apart here.
# What was measured:
# [1] = test system: Sephadex-included lung edema; experiment: Sephadex-induced lung edema in rats (anti-inflammatory effect), glucocorticoid in liposomes instilled into left lung lobe; assay type: in vivo, Sprague Dawley rats; conditions: for inhibition in vivo at 0.335 µmol/kg / inhibition in vivo at 0.1 µmol/kg / inhibition in vivo at 0.0335 µmol/kg / inhibition in vivo at 3.35 µmol/kg: Rattus norvegicus; for inhibition in vivo at 0.1 µmol/kg: 100 nmol/kg instilled in left lung lobe; for block of left lung edema (in words) / activity in the other lung half (in words) / reduction of edema in left lung / protection of left lung: summary of Table 1; for block of left lung edema (in words) / reduction of edema in left lung / protection of left lung: locally treated left lung; for activity in the other lung half (in words): right lung compared with left; for inhibition in vivo at 0.0335 µmol/kg: 33.5 nmol/kg instilled in left lung lobe; for inhibition in vivo at 3.35 µmol/kg: 3350 nmol/kg instilled in left lung lobe
# Text: (§1) Intratracheal instillation of Sephadex beads into rats leads to bronchial and also to alveolar inflammation. This provokes interstitial lung edema, which increases the lung weight, and the inflammation can be graded as the increase of the lung weight compared to a saline-instilled control group. The lung edema formation can be counteracted by pretreatment with glucocorticoids, preferably by local administration as intratracheal instillation or as inhalation. Ideally an anti-inflammatory action should be obtained only at the site of glucocorticoid application in the lung, but not in the rest of the body as this in long term treatment can lead to therapy limiting systemic side effects.
# The differentiation between glucocorticoid actions in the treated lung region and outside this area can be tested in the following way.
# (§2) Sprague Dawley rats (225 g) were slightly anaesthetized with ether and the glucocorticoid test preparation (in liposomes suspended in saline) in a volume of 0.5 ml/kg was instilled into just the left lung lobe. Two h later a suspension of Sephadex (5 mg/kg in a volume of […] was instilled in the trachea well above the bifurcation so that the suspension reached both the left and right lung lobes. Twenty h later the rats were killed and the left and right lung lobes dissected out and weighed separately. Also the spleen weight and the body weight gain over the 20 h were determined. Control groups got vehicle instead of glucocorticoid preparation and saline instead of Sephadex suspension to determine the weight of non-drug treated Sephadex edema and the normal lung weight as well as the normal spleen weight and body weight gain.
# As stated above an ideal glucocorticoid preparation should have a very high glucocorticoid activity at the site of application in lung, but with low activity outside this area. Therefore, in the selected model an optimal preparation should more or less completely block the edema in the locally pretreated left lung lobe, but have much less activity in the right lung half and no significant inhibitory action on the spleen weight and the body weight gain. […] In the test protocol used, doses were selected leading to a more or less complete block of the edema in the left lung and at these dose levels the extent of the other activities was estimated. At the selected dose 7-9 rats were tested in parallel.
# [2] = Spleen weight and body weight gain in the Sephadex lung edema test (systemic glucocorticoid action); assay type: in vivo, Sprague Dawley rats; set-up: Body weight gain in rel. to control: unit not given here; conditions: for Body weight gain in rel. to control: over 20 h; for % inhib. compared to control group, spleen: spleen weight, 20 h after Sephadex; for reduction of body weight gain (in words) / reduction of spleen (in words): summary of Table 1
# Text: as §1, §2
# As stated above an ideal glucocorticoid preparation should have a very high glucocorticoid activity at the site of application in lung, but with low activity outside this area. Therefore, in the selected model an optimal preparation should more or less completely block the edema in the locally pretreated left lung lobe, but have much less activity in the right lung half and no significant inhibitory action on the spleen weight and the body weight gain. It has been considered more important to search for a high degree of separation between the local activity (exemplified with the left lung) to the other activities than to search for a high absolute potency (high activity per mg drug) for the action in the left lung. In the test protocol used, doses were selected leading to a more or less complete block of the edema in the left lung and at these dose levels the extent of the other activities was estimated. At the selected dose 7-9 rats were tested in parallel. Mean±s.e.m. was calculated and compared with Student's t-test to the results of the corresponding Sephadex control group.
# [3] = 335 nmol/kg instilled in left lung lobe, liposomes in saline, 2 h before Sephadex, 20 h readout, locally treated lobe, read-out: % inhib. compared to control group, left lobe
# [4] = 335 nmol/kg instilled in left lung lobe, liposomes in saline, 2 h before Sephadex, 20 h readout, untreated lobe, read-out: % inhib. compared to control group, right lobe
# [5] = 335 nmol/kg instilled in left lung lobe, NS = not significant
# [6] = liposomes in saline, 2 h before Sephadex, 20 h readout, locally treated lobe, read-out: % inhib. compared to control group, left lobe
# [7] = liposomes in saline, 2 h before Sephadex, 20 h readout, untreated lobe, read-out: % inhib. compared to control group, right lobe
# [8] = 100 nmol/kg instilled in left lung lobe
# [9] = 33.5 nmol/kg instilled in left lung lobe, NS = not significant
# [10] = 20 h, read-out: % inhib. compared to control group, left lobe
# [11] = 20 h, read-out: % inhib. compared to control group, right lobe
# [12] = 3350 nmol/kg instilled in left lung lobe, NS = not significant
smiles,measurement,setting,value
CCCCCCCCCCCCCCCC(=O)OCC(=O)[C@@]1(OC(=O)CC)[C@H](C)C[C@H]2[C@@H]3CCC4=CC(=O)C=C[C@]4(C)[C@@]3(F)[C@@H](O)C[C@@]21C [Dexamethasone-21-palmitate-17-propionate],inhibition in vivo at 0.335 µmol/kg,[1]; [3],104%
same,inhibition in vivo at 0.335 µmol/kg,[1]; [4],44%
same,Body weight gain in rel. to control,[2]; [5],1.0
same,"% inhib. compared to control group, spleen",[2]; [5],3%
CCCCCCCCCCCCCCCC(=O)OCC(=O)[C@@]12OC(C)(C)O[C@@H]1C[C@H]1[C@@H]3C[C@H](F)C4=CC(=O)C=C[C@]4(C)[C@@]3(F)[C@@H](O)C[C@@]12C [Fluocinolone acetonide-21-palmitate],inhibition in vivo at 0.1 µmol/kg,[1]; [6],117%
same,inhibition in vivo at 0.1 µmol/kg,[1]; [7],95%
same,block of left lung edema (in words),[1],completely blocked the left lung edema
same,activity in the other lung half (in words),[1],as high activity in the other lung half
same,Body weight gain in rel. to control,[2]; [8],-4.8
same,"% inhib. compared to control group, spleen",[2]; [8],15%
same,reduction of body weight gain (in words),[2],significant reduction of body weight gain
same,reduction of spleen (in words),[2],significant reduction of body weight gain and to spleen
CCCCCCCCCCCCCCCC(=O)OCC(=O)[C@@]12OC(C)(C)O[C@@H]1C[C@H]1[C@@H]3C[C@H](F)C4=CC(=O)C=C[C@]4(C)[C@H]3[C@@H](O)C[C@@]12C [Flunisolide-21-palmitate],inhibition in vivo at 0.0335 µmol/kg,[1]; [6],133%
same,inhibition in vivo at 0.0335 µmol/kg,[1]; [7],44%
same,Body weight gain in rel. to control,[2]; [9],-2.6
same,"% inhib. compared to control group, spleen",[2]; [9],8%
CCCCCCCCCCCCCCCC(=O)OCC(=O)[C@@]1(OC(=O)CC)[C@H](C)C[C@H]2[C@@H]3C[C@H](F)C4=CC(=O)C=C[C@]4(C)[C@@]3(F)[C@@H](O)C[C@@]21C [Flumethasone-21-palmitate-17-propionate],inhibition in vivo at 0.0335 µmol/kg,[1]; [6],108%
same,inhibition in vivo at 0.0335 µmol/kg,[1]; [7],43%
same,Body weight gain in rel. to control,[2]; [9],2.0
same,"% inhib. compared to control group, spleen",[2]; [9],-1%
CCCCCCCCCCCCCCCC(=O)OCC(=O)[C@@]12OC(CCC)O[C@@H]1C[C@H]1[C@@H]3CCC4=CC(=O)C=C[C@]4(C)[C@H]3[C@@H](O)C[C@@]12C (some centres unmarked) [Budesonide-21-palmitate],inhibition in vivo at 0.335 µmol/kg,[1]; [3],100%
same,inhibition in vivo at 0.335 µmol/kg,[1]; [4],37%
same,Body weight gain in rel. to control,[2]; [5],-1.4
same,"% inhib. compared to control group, spleen",[2]; [5],4%
CCCC1O[C@@H]2C[C@H]3[C@@H]4CCC5=CC(=O)C=C[C@]5(C)[C@H]4[C@@H](O)C[C@]3(C)[C@]2(C(=O)CO)O1 (some centres unmarked) [Budesonide],inhibition in vivo at 0.335 µmol/kg,[1]; [3],38%
same,inhibition in vivo at 0.335 µmol/kg,[1]; [4],30%
same,reduction of edema in left lung / protection of left lung,[1],up to 38%
same,Body weight gain in rel. to control,[2]; [5],1.6
CCCCC(=O)OCC(=O)[C@@]12OC(CCC)O[C@@H]1C[C@H]1[C@@H]3CCC4=CC(=O)C=C[C@]4(C)[C@H]3[C@@H](O)C[C@@]12C (some centres unmarked) [Budesonide-21-valerate],inhibition in vivo at 0.335 µmol/kg,[1]; [3],21%
same,inhibition in vivo at 0.335 µmol/kg,[1]; [4],22%
same,reduction of edema in left lung / protection of left lung,[1],up to 38%
same,Body weight gain in rel. to control,[2]; [5],-0.8
same,"% inhib. compared to control group, spleen",[2]; [5],-1%
CCCCCCCCCCCCCCCC(=O)OCC(=O)[C@@]1(O)[C@@H](C)C[C@H]2[C@@H]3CCC4=CC(=O)C=C[C@]4(C)[C@@]3(F)[C@@H](O)C[C@@]21C [Betamethasone-21-palmitate],inhibition in vivo at 0.335 µmol/kg,[1]; [10],109%
same,inhibition in vivo at 0.335 µmol/kg,[1]; [11],-5%
same,Body weight gain in rel. to control,[2]; [5],0.2
same,"% inhib. compared to control group, spleen",[2]; [5],7%
CCCCCCCCCCCCCCCC(=O)OCC(=O)[C@@]1(O)[C@H](C)C[C@H]2[C@@H]3CCC4=CC(=O)C=C[C@]4(C)[C@@]3(F)[C@@H](O)C[C@@]21C [Dexamethasone-21-palmitate],inhibition in vivo at 0.335 µmol/kg,[1]; [10],127%
same,inhibition in vivo at 0.335 µmol/kg,[1]; [11],109%
same,block of left lung edema (in words),[1],completely blocked the left lung edema
same,activity in the other lung half (in words),[1],as high activity in the other lung half
same,Body weight gain in rel. to control,[2]; [5],-10.8
same,reduction of body weight gain (in words),[2],significant reduction of body weight gain
same,reduction of spleen (in words),[2],significant reduction of body weight gain and to spleen
CCCCCCCCCCCCCCCC(=O)OCC(=O)[C@@]1(O)CC[C@H]2[C@@H]3CCC4=CC(=O)CC[C@]4(C)[C@H]3[C@@H](O)C[C@@]21C [Hydrocortisone-21-palmitate],inhibition in vivo at 0.335 µmol/kg,[1]; [3],-13%
same,inhibition in vivo at 0.335 µmol/kg,[1]; [4],-7%
same,reduction of edema in left lung / protection of left lung,[1],up to 38%
same,Body weight gain in rel. to control,[2]; [5],-1
CCCCCCCCCCCCCCCC(=O)OCC(=O)[C@@]1(OC(=O)CC)[C@@H](C)C[C@H]2[C@@H]3CCC4=CC(=O)C=C[C@]4(C)[C@@]3(Cl)[C@@H](O)C[C@@]21C [Beclomethasone-21-palmitate-17-propionate],inhibition in vivo at 3.35 µmol/kg,[1]; [6],87%
same,inhibition in vivo at 3.35 µmol/kg,[1]; [7],47%
same,reduction of edema in left lung / protection of left lung,[1],87%
same,Body weight gain in rel. to control,[2]; [12],-3.1
same,"% inhib. compared to control group, spleen",[2]; [12],5%
